In patent US9617517B2, “Small chemical compound which promotes induction of differentiation of stem cells into insulin-producing cells and method for inducing differentiation of stem cells into insulin-producing cells using said small chemical compound” (NATIONAL UNIVERSITY CORPORATION KUMAMOTO UNIVERSITY, priority 2011, dated 2017):

What was measured:
[1] = tested on: mouse ES cells (Pdx1/GFP); assay: Differentiation of mouse ES cells into insulin positive cells on nano fiber plate, immunostaining and quantitative image analysis; assay type: cell-based
Text: Two ES cell lines, one expressing green fluorescent protein (GFP) under the control of insulin 1 promoter, designed ING (Higuchi Y., Shiraki N., Yamane K, Qin Z., Mochitate K., Araki K., Senokuchi K., Yamagata K., Hara M., Kume K., and Kume S., Synthesized basement membranes direct the differentiation of mouse embryonic stem cells into pancreatic lineages. J. Cell Science, 123, 2733-2742, 2010), and the other one expressing GFP under the control of Pdx1 promoter, designated SK7 (Shiraki N, Yoshida T, Araki K, et al. Guided differentiation of embryonic stem cells into Pdx1-expressing regional-specific definitive endoderm. Stem Cells. 2008; 26:874-885), were used. Both cell lines were maintained on mouse embryonic fibroblast (MEF) feeders in Glasgow minimum essential medium (Invitrogen) containing 1000 units/ml leukemia inhibitory factor (LIF; Chemicon), 15% Knocked-out Serum Replacement (KSR; Gibco), 1% fetal bovine serum (FBS; Hyclone), 100 μM nonessential amino acids (NEAA; Invitrogen), 2 mM L-glutamine (L-Gln; Invitrogen), 1 mM sodium pyruvate (Invitrogen), 50 units/ml penicillin and 50 μg/ml streptomycin (PS; Invitrogen) and 100 μM β-mercaptoethanol (β-ME; Sigma), as ES maintenance medium.
For the differentiation studies, ES cells were plated at 5,000 cells per well in Corning 96 well plate with Ultra-Web Synthetic Polyamine Surface (#3873XX1, Corning Coster, Cambridge, Miss.), and cultured. The cells were cultured in Dulbecco's Modified Eagle Medium (DMEM: Invitrogen, Glasgow, UK) containing 4500 mg/L glucose, supplemented with NEAA, L-Gln, PS, β-ME, 10 μg/ml insulin (Sigma-Aldrich), 5.5 μg/ml transferrin (Sigma-Aldrich), 6.7 pg/ml selenium (Sigma-Aldrich), and 0.25% Albmax (Invitrogen), 10 ng/mL recombinant human activin-A (R&D Systems, Minneapolis, Minn.), 5 ng/mL; recombinant human bFGF for 7 days (d1-d7) (I of FIG. 1). And then, the medium was changed to RPMI 1640 medium (Invitrogen) containing 2000 mg/L glucose (Sigma, St Louis, Mo.), 1 μM Retinoic acid (Sigma-Aldrich), 50 ng/ml Human Recombinant Fibroblast Growth Factor-10 (Peprotech, Rocky Hill, N.J.), B27 SUPPLEMENT (Invitrogen) and 0.25 μM 3-Keto-N-(aminoethyl-aminocaproyl-dihydrocinnamoyl) cyclopamine Shh Signaling Antagonist II (Calbiochem, San Diego, Calif.) on d7 to d11 (II of FIG. 1). Finally, the medium was switched to DMEM containing 1000 mg/L glucose supplemented with NEAA, L-Gln, PS, β-ME, 10 μg/ml insulin (Sigma-Aldrich), 5.5 μg/ml transferrin (Sigma-Aldrich), 6.7 pg/ml selenium (Sigma-Aldrich), 0.25% Albmax (Invitrogen) and 10 mM nicotinamide (Sigma-Aldrich) on d11 to d17 (III of FIG. 1). Media were replaced every 2 days with fresh medium and growth factors until d17.
All tested small chemical compounds were solved in dimethyl sulfoxide (DMSO) at given concentration. Compounds were added on d11, d13 and d15 in a medium. Final concentration of DMSO was adjusted at 1.0% in all experiments for compounds.
After 17 days cell culture, cultured ES cells were fixed in 4% paraformaldehyde in PBS for 30 min at room temperature, and rinsed several times with PBS. Then, cells were incubated in the added diluted primary antibody in 20% Blocking One (Nacalai tesque, Tokyo, Japan) in PEST (0.1% Tween-20 in PBS) in a humidified chamber for overnight at 4° C. After washing the cells in PBST, cells were incubated with the secondary antibody in 20% Blocking One for 2 hr at room temperature in dark. After washing off the secondary antibody in PBST, cells were counterstained with […] (DAPI) (Roche Diagnostics). The following antibodies were used as First antibodies: Rabbit anti-GFP (MBL International Corp., Woburn, Mass.), Mouse anti-Insulin (Sigma). The following antibodies were used as Secondary antibodies: Alexa 568-conjugated, Alexa 488-conjugated antibodies (Invitrogen) Cells were counterstained with DAPI (Roche Diagnotics, Basel, Switzerland).

[2] = tested on: differentiated ES cells; assay: Real time PCR of gene expression in differentiated ES cells; assay type: cell-based, mouse; conditions: TBZ 2.5 μM
[3] = tested on: differentiated ES cells; assay: Secreted insulin and cellular insulin content by mouse c-peptide ELISA; assay type: cell-based
[4] = tested on: Ngn3/GFP mouse ES cells; assay: Ngn3 positive cell inducing rate; assay type: cell-based; conditions: TBZ 2.5 μM or dBu-cAMP 0.6 μM; addition days 9-11, 11-13 or 9-13; day 13 (FIG. 16C)
Experimental: The influence exerted on the Ngn3 positive cell inducing rate by addition of TBZ (2.5 μM) or dBu-cAMP (0.6 μM) was confirmed. FIG. 16A is a view schematically showing the addition periods of TBZ or dBu-cAMP, and the addition periods are a) on days 9 to 11 of culture, b) on days 11 to 13 of culture, and c) on days 9 to 13 of culture.
First, the compound was not added or TBZ was added on days 9 to 13 of culture (period c), and visible light photographs and fluorescence of Ngn3/GFP mouse ES cells were observed on day 13 of culture. The left one is a visible light photograph and the right one is fluorescence.
Next, the compound was not added, or TBZ or dBu-cAMP was added under the above-described conditions a), b) and c), and the proportion of GFP positive cells on day 13 of culture was checked. The ratios of the proportions of GFP positive cells and Ngn3 positive cells when the ratio in the case of no addition is 1 are shown in FIG. 16C. […] The order of intensity of the effect was a), c), b) in descending order.

CCCC(=O)Nc1ncnc2c1ncn2[C@@H]1O[C@@H]2COP(=O)(O)O[C@H]2[C@H]1OC(=O)CCC [Dibutyryl- cAMP, dibutyrate-cAMP]
increase of number of insulin positive cells ([1]; 0.6 μM dBu-cAMP (FIG. 11B)): about 7 fold
increase of number of insulin-expressing cells ([1]; NS cells, 0.63 μM dBu-cAMP d11-d17 (FIG. 11A)): 2.9 fold
effect on differentiation into insulin-expressing cells ([1]; compound added d11-d17, insulin staining d17 (FIG. 4, 5, 7, 8, 10)): enhanced the differentiation into insulin-expressing cells
Relative value of Ins positive cells ([1]; number of cells with no compound = 1, concentration of each compound (μM), added d11, d13, d15, analysed d17): 4.9
expression of Abcc8 ([2]; dBu-cAMP 0.6 μM (FIG. 13)): increased remarkably
expression of Glut2 ([2]; dBu-cAMP 0.6 μM (FIG. 13)): increased remarkably
expression of MafA ([2]; dBu-cAMP 0.6 μM (FIG. 13)): increased slightly
expression of Stx1 ([2]; dBu-cAMP 0.6 μM (FIG. 13)): increased slightly
expression level of MafA, time course ([2]; dBu-cAMP 0.6 μM from day 11, after day 13 (FIG. 15)): promoted
expression level of Ngn3 ([2]; dBu-cAMP 0.6 μM from day 11, day 13 and day 15 (FIG. 15)): increased also
expression level of Insulin1 ([2]; dBu-cAMP 0.6 μM from day 11, single after day 13, both after day 15 (FIG. 15)): promoted
sugar-responsive C-peptide secretion ([3]; dBu-cAMP 0.6 μM, no TBZ, addition days 11-17, 11-15 or 13-17, day 17 (FIG. 17)): increased in all conditions
C-peptide secretion ([3]; glucose concentration 27.5 mM, dBu-cAMP 0.6 μM day 11 to 17 (FIG. 18E)): C-peptide secretion was observed
number of GFP positive cells [4]: increased in all conditions
